Laboratory results: publication PMC4222488, “Lipid droplet binding thalidomide analogs activate endoplasmic reticulum stress and suppress hepatocellular carcinoma in a chemically induced transgenic mouse model” (Lipids in Health and Disease, 2013)

What was measured:
Huh7 [1] = assay: MTS cytotoxicity assay (CellTiter 96 AQueous); format: cell-based; details: Homo sapiens, Huh-7, 48 h exposure
Method: (§1) Hep3B and HepG2 cells were grown in mixture of Dulbecco’s Modified Eagle Medium (D-MEM) (high glucose) (Gibco BRL, Carlsbad, CA, USA) and Nutrient Mixture F-12 Ham (Sigma, St. Louis, MO, USA) containing penicillin (50 IU/ml)–streptomycin ([…]) and 10% fetal bovine serum. For cytotoxicity assays, cells were seeded at a density of 10.000 cells per well into 96-well cell culture plates and maintained in a humidified atmosphere of 95% air and 5% CO2 for 12 h, then treated with different concentrations of Ac-2010 or Ac-915. MTS (3-(4,5-dimethylthiazol-2-yl)-5-(3-carboxymethoxy-phenyl)-2-(4-sulfophenyl)-2H-tetrazolium) assay was applied to drug treated and control (0.2% DMSO) cells with CellTiter 96® AQueous Assay (Promega, Madison, WI) according to the manufacturer’s protocol.
(§2) Their cytotoxic effects on human hepatocellular carcinoma cell lines (namely: HepG2, Hep3B and Huh7) were measured by using the MTS assay. […] Both Ac-915 and Ac-2010 induced cell death of liver cancer cells at sub- or low micromolar ranges.

HepG2 [2] = assay: MTS cytotoxicity assay (CellTiter 96 AQueous); format: cell-based; details: Homo sapiens, 48 h exposure
Method: as §1, §2

Hep3B [3] = assay: MTS cytotoxicity assay (CellTiter 96 AQueous); format: cell-based; details: Homo sapiens, 48 h exposure
Method: as §1, §2

Hep3B [4] = assay: ROS determination (DCFDA fluorescence, FACS); format: cell-based, human
Method: ROS generation was determined by the increase in DCFDA (2',7'-dichlorodihydrofluorescein diacetate, Sigma) fluorescence after drug stimulation. HepG2 cells were washed, resuspended in 1% bovine serum albumin in Hanks buffered saline solution (BSA-HBSS) at 10^6 cells/mL and maintained at 37°C for analysis. Cells were treated with the indicated drugs (Ac-915, Ac-2010). DCFDA was added 60 min prior to harvest, at 2 μM final concentration and intracellular ROS production was measured by using a fluorescence activated cell sorter (Beckton Dickinson) with 20,000 events/test. All the other parameters and calculations were as described before.
Toxic compounds and numerous anticancer agents interfere with chaperone and ER functions leading to cellular stress which is manifested by elevated reactive oxygen species (ROS) and dramatic decrease in the anti-oxidant, glutathione (GSH) level. To investigate whether Ac-915 and Ac-2010 exert a pro-oxidative effect as determined earlier for other amino-trifluoro-phthalimides and “redox-reactive” thalidomide analogs, we measured the presence of ROS in human hepatocellular carcinoma cells (Hep3B) Figure 4a. To reveal the correlation of depletion of glutathione and ROS production of the analogs we determined the intracellular concentrations of glutathione. […]

Hep3B [5] = assay: Glutathione measurement (GSH-Glo); format: cell-based, human; details: treated Hep3B cells
Method: HepG2 cells (20000 cells per well in a 96-well plate) were incubated with Ac-915 in 50 μl PBS for 2 hours in a humidified atmosphere of 95% air and 5% CO2. 50 μl aliquots of prepared 2X GSH-GloTM Reagent (GSH-GloTM Glutathione assay; Promega, Madison, WI) were added to the wells and incubation continued at room temperature for 30 minutes. 100 μl of reconstituted Luciferin Detection Reagent (Promega) was added to each well and cells were incubated for 15 minutes further. Negative controls and blank reactions were also prepared. The amount of light produced was detected by luminometer.
Toxic compounds and numerous anticancer agents interfere with chaperone and ER functions leading to cellular stress which is manifested by elevated reactive oxygen species (ROS) and dramatic decrease in the anti-oxidant, glutathione (GSH) level. To investigate whether Ac-915 and Ac-2010 exert a pro-oxidative effect as determined earlier for other amino-trifluoro-phthalimides and “redox-reactive” thalidomide analogs, we measured the presence of ROS in human hepatocellular carcinoma cells (Hep3B) Figure 4a. To reveal the correlation of depletion of glutathione and ROS production of the analogs we determined the intracellular concentrations of glutathione. To determine whether Ac-915 and Ac-2010 affect intracellular GSH levels Hep3B cells were treated with compounds and GSH levels were recorded.

PDI [6] = molecular target: T1, PDI (Homo sapiens, UniProt P07237); assay: Protein disulfide isomerase assay (catalytic reduction of insulin, turbidity at 650 nm); format: biochemical; design: purchased Sino Biological; details: insulin reduction in presence of 1 mM DTT, 25°C
Method: The assay is based on the measurement of the catalytic reduction of insulin as described by Lundstrom and Holmgren. In this assay, PDI facilitates the reduction of insulin in the presence of DTT. The reduced insulin chains aggregate, and the turbidity is monitored spectrophotometrically at 650 nm. The assay was performed in a 96-well plate format and a volume of 30 μl in the presence of 1 mM DTT, 1 μg PDI (Sino Biological), 0.14 mM bovine pancreas insulin (Sigma), and 0.2 mM EDTA in 100 mM potassium phosphate, pH 7.0. The progress of the reaction was monitored on a 96-well plate reader (Model 680 Microplate Reader, Bio-Rad Laboratories) at 650 nm for 95 minutes at 25°C. Ac-915, Ac-2010 or DMSO control was added prior to the addition of enzyme at the concentrations indicated. The nonenzymatic reduction of insulin by DTT was recorded in a control well without PDI. IC50 values of the compounds were calculated using nonlinear regression analysis.
These values are in good correlation with the KD values determined by direct biochemical interaction measurements using waveguide optical biosensors. The activity of PDI was based on the measurement of the catalytic reduction of insulin as described by Lundstrom and Holmgren. In this assay both analogs inhibited the PDI-induced reduction of insulin in the presence of dithiothreitol. […]

DEN-induced liver tumors = assay: DEN-induced hepatocellular carcinoma in Matn2-/- mice; format: in vivo; details: started 4 months after DEN, assessed 8 months after DEN
Method: All mice were fed a commercial diet and water ad libitum and were housed in an animal facility under a 12 h light/dark cycle at constant temperature and humidity. For all of our studies, we employed male Matn2-deficient mice (Matn2^−/−) congenic in the 129/Sv genetic background.
For studies of liver tumor development, 15-day-old mice were treated with a single dose of DEN (Sigma-Aldrich, Budapest, Hungary) dissolved in saline at a dose of 25 mg/kg body weight by i.p. injection. 4 months after DEN injection mice were treated with either Ac-915 for 3 months (n = 15) or with Ac-2010 for 1 month (n = 10). Mice were killed 8 months after DEN administration for determination of tumor occurrence (number of tumor nodules) and liver mass index (liver weight/body weight × 100). Treatments were conducted by i.p. injection of Ac-915 at a dose of 10 mg/kg body weight three times a week or Ac-2010 at a dose of 4 mg/kg body weight three times a week.
For studies of liver tumor development, 15-day-old mice were treated with a single dose of DEN as described previously. Mice in the Ac-915 treated group (n = 15) were treated 4 months after DEN treatment for an additional 3 months. […] Mice were killed 8 months after DEN administration and the number and size of tumors and liver mass index were determined.
Liver samples were analyzed at the same time point, 8 months after DEN administration. […]

human HSP70 = molecular target: T2, human HSP70 (Homo sapiens, UniProt P0DMV8); assay: Resonant waveguide optical biosensor binding assay; details: immobilized human recombinant protein, curve fitting
T2 construct: purchased Sino Biological
Method: (§3) Protein immobilization was accomplished by applying 10 μL of 50 μg/mL human PDI (Sino Biological Inc., Beijing, China) or 50 μg/mL human HSP70 (Sino Biological) or 100 μg/mL human HSP90 (Sino Biological) in 20 mM sodium acetate pH 5.5 into a preactivated 384-well biochemical plate (Perkin Elmer) and incubating overnight at 4°C. The microplates were subsequently washed three times with assay buffer (PBS, pH 7.4/0.005% Tween 20/3% DMSO) and, after 25 minutes thermal equilibration, a baseline reading was taken in the Enspire Multimode Plate Reader (Perkin Elmer). Finally, 15 μL assay buffer was added including different concentrations of Ac-915 or Ac-2010. The Enspire response is measured as a shift in reflected wavelength and is expressed in picometers (pm). The affinity (KD) was calculated using a curve fitting method.
(§4) Direct biomolecular interactions were determined between human recombinant and purified HSP70, HSP90, PDI proteins and Ac-915 and Ac-2010 with resonant waveguide optical biosensor technology in a biochemical binding assay. The technology is based on a microplate with resonant waveguide optical biosensors integrated into each well and a high throughput screening-compatible optical reader (Enspire system, Perkin Elmer). The biochemical interaction between the small molecule and the protein was measured as a shift in reflected wavelength and is expressed in picometers (pm). The binding of both analogs to each of the protein was specific and saturable with the dose response (data not shown).

human HSP90 = assay: Resonant waveguide optical biosensor binding assay; details: immobilized human recombinant protein, curve fitting
Method: as §3, §4

PDI [7] = molecular target: T1, PDI; assay: Resonant waveguide optical biosensor binding assay; design: purchased Sino Biological Inc., Beijing, China; details: immobilized human recombinant protein, curve fitting
Method: as §3
as §4, with “The binding of both analogs to each of the protein was specific and saturable with the dose response (data not shown).” left out

[8] = Tissue distribution by fluorescent confocal microscopy of native tissue sections after i.v. injection; format: in vivo; details: mice, i.v. 20 mg/kg
Method: Mice were injected i.v. with Ac-915 or Ac-2010 (20 mg/kg) and after different time points tissues were dissected, washed in PBS, embedded in Tissue-Tek® O.C.T™ medium. After fast-freezing, the samples were stored at −20°C. Tissue sections (20 μm) were prepared by using a Leica CM1950 cryostat at −20°C. From each tissue (liver, brain, kidney, muscle, heart) three independent images were recorded as above. Images were analyzed with the Olympus Fluoview 1.6 Ver Viewer software.
To determine the tissue distribution of trifluor-amino-phtalimides, compounds were administered by i.v. injection into mice, the animals were killed at different time points and different organs were dissected. Native microscope sections were prepared and analyzed under fluorescent microscope. Because our analogs have strong inherent blue fluorescence, relative tissue distribution can be determined by using fluorescent microscopy with 405 nm laser with DAPI configuration. […] The target organs of Ac-915 seemed to be the kidney and preferentially, the liver.

Huh7 [9] = assay: Real-time cytotoxicity, xCELLigence System (RT-CES); format: cell-based, human; details: Huh7, impedance monitored for 48 h
Method: (§5) Cytotoxicity and cell migration was monitored with the real-time cell electronic sensing, xCELLigence System (RT-CES, Acea-Roche). Cytotoxicity effects of Ac-2010 and Ac-915 compounds were tested on two different hepatocellular carcinoma cell lines (HepG2 and Hep3B). The RT-CES 96-well E-plate was coated with gelatin and then washed twice with PBS. Growth media (respective to cell types) were then gently dispensed into each well of the 96-well E-plate for background readings by the RT-CES system prior to addition of cell suspension at a density of 6000 cells/well. Devices containing the cell suspension were kept at 37° in a CO2 incubator for 8 h prior to treatment with different concentrations of Ac-2010 and Ac-915. Cell growth was monitored for 48 h by measurements of electrical impedance every 5 min.
(§6) Cytotoxic effects of Ac-915 and Ac-2010 compounds were also tested by the real-time cell electronic sensing, xCELLigence System (RT-CES) on two different hepatocellular carcinoma cell lines (Huh7, HepG2). This technology is based on proprietary microelectronic cell sensor arrays that are integrated in the bottom of the microtiter plates (96-well E-plate). When cells are cultured in a well, impedance is measured between sensor electrodes and the attached cells that act as insulators, which is converted into cell index number.

HepG2 [10] = assay: as above; format: cell-based, human; details: for Cytotoxic effect in real time (cell index): HepG2, impedance monitored for 48 h
Method: as §5, §6

[11] = Solubility (data not shown); format: physicochemical
HepG2 cell migration = assay: Real-time cell migration assay, RTCA DP xCELLigence (CIM-plate 16); format: cell-based, human
[12] = Acute toxicity (data not shown); format: in vivo

T1 sequence (P07237 18-508): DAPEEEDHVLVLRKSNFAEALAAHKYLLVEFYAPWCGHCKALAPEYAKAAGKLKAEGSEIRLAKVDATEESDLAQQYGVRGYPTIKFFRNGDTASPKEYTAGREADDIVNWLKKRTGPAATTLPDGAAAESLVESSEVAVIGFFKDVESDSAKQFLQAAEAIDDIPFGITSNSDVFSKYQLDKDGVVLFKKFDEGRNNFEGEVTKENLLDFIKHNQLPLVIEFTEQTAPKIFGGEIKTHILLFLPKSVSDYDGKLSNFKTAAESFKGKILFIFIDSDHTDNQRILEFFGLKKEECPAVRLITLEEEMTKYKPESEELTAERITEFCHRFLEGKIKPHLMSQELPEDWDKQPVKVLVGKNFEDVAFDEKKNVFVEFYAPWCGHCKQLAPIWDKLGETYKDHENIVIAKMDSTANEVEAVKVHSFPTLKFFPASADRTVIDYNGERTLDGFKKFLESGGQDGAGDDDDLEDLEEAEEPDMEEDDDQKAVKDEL
T2 sequence (P0DMV8 whole entry): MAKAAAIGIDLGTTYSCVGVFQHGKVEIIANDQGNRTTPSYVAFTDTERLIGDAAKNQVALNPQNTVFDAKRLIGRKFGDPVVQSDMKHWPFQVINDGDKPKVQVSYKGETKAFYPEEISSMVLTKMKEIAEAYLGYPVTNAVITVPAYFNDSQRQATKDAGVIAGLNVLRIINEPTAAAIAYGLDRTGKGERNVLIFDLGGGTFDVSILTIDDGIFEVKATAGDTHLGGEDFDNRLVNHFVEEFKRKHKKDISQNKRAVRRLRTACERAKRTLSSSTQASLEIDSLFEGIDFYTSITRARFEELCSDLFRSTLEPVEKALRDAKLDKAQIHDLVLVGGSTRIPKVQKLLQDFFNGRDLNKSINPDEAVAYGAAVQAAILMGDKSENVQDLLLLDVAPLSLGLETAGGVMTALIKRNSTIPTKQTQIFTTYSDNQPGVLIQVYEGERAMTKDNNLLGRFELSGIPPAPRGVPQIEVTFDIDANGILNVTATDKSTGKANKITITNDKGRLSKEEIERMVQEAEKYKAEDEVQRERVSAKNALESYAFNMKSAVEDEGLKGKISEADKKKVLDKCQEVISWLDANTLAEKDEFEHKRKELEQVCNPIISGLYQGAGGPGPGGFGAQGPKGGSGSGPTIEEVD

Structure (SMILES) | EC50 (Huh7 [1]) [µM] | EC50 (HepG2 [2]) [µM] | EC50 (Hep3B [3]) [µM] | Intracellular ROS induction (Hep3B [4]) | Intracellular GSH levels (Hep3B [5]) | IC50 (PDI [6]) [µM] | Kd (human HSP70) [µM] | Kd (human HSP90) [µM] | Kd (PDI [7]) [µM] | Cytotoxic effect in real time (cell index) (Huh7 [9]) | Cytotoxic effect in real time (cell index) (HepG2 [10]) | further results
CC(C)c1cccc(C(C)C)c1N1C(=O)c2c(F)c(F)c(F)c(N[C@@H]3C=CS(=O)(=O)C3)c2C1=O [Ac-915, 2-[2,6-bis(propane-2-yl)phenyl]-4-{[(3R)-1,1-dioxo-2,3-dihydro-thiophene-3-yl]amino}-5,6,7-trifluoro-2,3-dihydro-1H-isoindole-1,3-dione] | 1.66 | 1.21 | 0.76 | induce intracellular reactive oxygen species | depleted intracellular GSH levels | ~15 | 14 | 11.5 | ~10.5 | micromolar cytotoxic effects | micromolar cytotoxic effects | Liver tumor development vs control mice (DEN-induced liver tumors; 10 mg/kg i.p. three times a week for 3 months): significantly less tumor development; Fluorescence in the liver [8]: strong fluorescent signals; Time of peak fluorescence in the liver [8]: 4 h; Fluorescence in the kidney ([8]; 2 and 4 h after administration): strong signals; Fluorescence in the brain ([8]; 1 h after administration): only a slight fluorescence increase; Fluorescence in the heart ([8]; 4 h after administration): minor fluorescence increase
CC(C)c1cccc(C(C)C)c1N1C(=O)c2c(F)c(F)c(F)c(NC(=O)NC(=O)CCl)c2C1=O [Ac-2010] | 0.94 | 1.05 | 0.54 | induce intracellular reactive oxygen species | depleted intracellular GSH levels | ~9 | ~16 | ~16 | ~6 | micromolar cytotoxic effects | micromolar cytotoxic effects | Solubility compared with Ac-915 [11]: better solubility; Inhibition of cell migration (HepG2 cell migration; 250 nM): inhibited migration; Inhibition of cell migration (HepG2 cell migration; higher concentration, 2 h after administration): completely inhibited cell migration; Liver tumor incidence, number of tumors and liver mass index vs untreated control (DEN-induced liver tumors; 4 mg/kg i.p. three times a week for 1 month, p < 0.01): less liver tumor incidence, fewer tumors and lower liver mass index; Acute toxicity compared with Ac-915 [12]: higher acute toxicity; Cytotoxicity at the migration-inhibiting concentration (HepG2 [10]; 250 nM, HepG2 cells): no cytotoxicity could be detected
